Measured values reported in patent US9902725B2, “Heterocyclic derivatives as RORgamma modulators” (GENFIT, priority 2014, dated 2018).

Each molecule was assayed against T1, human RORγt (Homo sapiens, UniProt P51449) (assay: IL-17 secretion from EL4 murine lymphoma overexpressing human RORγt). Details: IL-17 secretion inhibition, PMA and ionomycin stimulation, 24 h.
T1 sequence (P51449 1-497 isoform P51449-2): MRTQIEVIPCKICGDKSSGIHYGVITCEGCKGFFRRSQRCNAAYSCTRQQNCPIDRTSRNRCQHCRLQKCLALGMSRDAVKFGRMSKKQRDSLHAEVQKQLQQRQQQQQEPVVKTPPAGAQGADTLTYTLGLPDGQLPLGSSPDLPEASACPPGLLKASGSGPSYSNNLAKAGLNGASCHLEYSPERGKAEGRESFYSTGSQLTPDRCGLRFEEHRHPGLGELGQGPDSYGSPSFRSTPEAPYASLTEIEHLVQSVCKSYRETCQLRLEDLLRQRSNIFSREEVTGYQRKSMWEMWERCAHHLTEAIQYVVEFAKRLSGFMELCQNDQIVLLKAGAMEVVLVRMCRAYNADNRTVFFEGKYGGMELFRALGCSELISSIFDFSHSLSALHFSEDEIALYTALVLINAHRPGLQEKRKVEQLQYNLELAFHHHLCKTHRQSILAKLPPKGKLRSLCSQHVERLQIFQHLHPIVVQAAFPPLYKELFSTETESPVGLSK
Format: cell-based
Parameters: expressed in transfected cells; host or cells: EL-4 murine lymphoma
Method: Murine EL-4 lymphoma cell line overexpressing human RORγt was used in this functional assay to assess compound ability to inhibit IL-17 cytokine secretion.
EL-4 cells are maintained in a standard culture medium RPMI supplemented with 10% fetal calf serum, 1% sodium pyruvate, 1% essential amino acids and 1% antibiotics at 37° C. in a humidified atmosphere of 5% CO2 and 95% air. Culture medium was changed every 2 days. EL4 cells were transfected with a plasmid encoding hRORγt (sequence identical to published sequence NM 001001523). […] Briefly, 1 μg of DNA/1 million cells was served to transfect EL-4 cells. Cell/DNA suspension was transferred into certified cuvette and the electroporation of RORγt plasmid was carried out using appropriate Nucleofector® program.
Cells were seeded in 96 well plates at a density of 150000 cells/well then treated with compounds of this invention at indicated concentrations and incubated for 24 hours at 37° C. in a humidified atmosphere of 5% CO2 and 95% air. EL-4 cells were pretreated with test compounds (RORγ modulators) and stimulated with PMA (10 ng/mL) and ionomycin (1 μM final concentration) in the presence of test compound concentrations for additional 24 h at 37° C. in a humidified atmosphere of 5% CO2 and 95% air. Subsequently, supernatants were collected (after centrifugation at 300 g for 10 minutes) to determine the concentrations of IL-17 by HTRF (CisBio, France) or ELISA (R&D Systems Europe) according to the manufacturer's protocols.

First: Cc1cc(Br)ccc1C(NC(=O)Cc1ccc2[nH]cc(CCC(=O)OC(C)(C)C)c2c1)c1ccccc1 (stereo not shown) [Cpd. 43, tert-butyl 3-[5-({[(4-bromo-2-methylphenyl)(phenyl)methyl]carbamoyl}methyl)-1H-indol-3-yl]propanoate]
Second: CC(C)(C)OC(=O)CCc1c[nH]c2ccc(CC(=O)NC(c3ccccc3)c3ccc(Br)cc3N3CCCC3)cc12 (stereo not shown) [Cpd. 49, tert-butyl 3-{5-[({[4-bromo-2-(pyrrolidin-1-yl)phenyl](phenyl)methyl}carbamoyl)methyl]-1H-indol-3-yl}propanoate]
The IC50 of the first is higher: 10000 to 30000 nM for the first, 1000 to 10000 nM for the second. The second is the more potent here.

CC(C)(C)OC(=O)CCc1c[nH]c2ccc(CC(=O)NC(c3ccccc3)c3ccc(C(F)(F)F)cc3N3CCCC3)cc12 (stereo not shown) [Cpd. 47, tert-butyl 3-{5-[({phenyl[2-(pyrrolidin-1-yl)-4-(trifluoromethyl)phenyl]methyl}carbamoyl)methyl]-1H-indol-3-yl}propanoate] and CC(C)(C)OC(=O)CCc1c[nH]c2ccc(CC(=O)NC(c3ccccc3)c3ccc(C#N)cc3N3CCCC3)cc12 (stereo not shown) [Cpd. 59, tert-butyl 3-{5-[({[4-cyano-2-(pyrrolidin-1-yl)phenyl](phenyl)methyl}carbamoyl)methyl]-1H-indol-3-yl}propanoate] fall in the same range of IC50: 1000 to 10000 nM for the first, 1000 to 10000 nM for the second.

Work on COC(=O)Cc1c[nH]c2ccc(CC(=O)NC(c3ccccc3)c3ccc(C)cc3N3CCCC3)cc12 (stereo not shown) [Cpd. 64, methyl 2-{5-[({[4-methyl-2-(pyrrolidin-1-yl)phenyl](phenyl)methyl}carbamoyl)methyl]-1H-indol-3-yl}acetate] yielded an IC50 of less than 1000 nM.

The molecules below were run against T2, RORγt ligand-binding domain (RORγt-LBD) (Homo sapiens, UniProt P51449) (assay: Time-resolved FRET (TR-FRET) RORγt coactivator assay). Details: GST-RORγ-LBD, biotinylated RIP140 peptide, coactivator displacement.
T2 construct: 20 nM recombinantly expressed RORγ-LBD fused to GST
T2 sequence (P51449 269-508 limits assumed): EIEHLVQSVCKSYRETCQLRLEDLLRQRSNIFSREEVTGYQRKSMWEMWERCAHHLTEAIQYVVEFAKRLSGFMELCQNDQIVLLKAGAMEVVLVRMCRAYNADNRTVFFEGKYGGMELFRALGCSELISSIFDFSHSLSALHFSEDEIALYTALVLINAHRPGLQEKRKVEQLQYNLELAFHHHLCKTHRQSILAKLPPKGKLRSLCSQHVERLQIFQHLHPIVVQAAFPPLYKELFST
Format: biochemical

Cc1cc(Br)ccc1C(NC(=O)Cc1ccc2[nH]cc(CCC(=O)OC(C)(C)C)c2c1)c1ccccc1 (stereo not shown) [Cpd. 43, tert-butyl 3-[5-({[(4-bromo-2-methylphenyl)(phenyl)methyl]carbamoyl}methyl)-1H-indol-3-yl]propanoate] and CC(C)(C)OC(=O)CCc1c[nH]c2ccc(CC(=O)NC(c3ccccc3)c3ccc(Br)cc3N3CCCC3)cc12 (stereo not shown) [Cpd. 49, tert-butyl 3-{5-[({[4-bromo-2-(pyrrolidin-1-yl)phenyl](phenyl)methyl}carbamoyl)methyl]-1H-indol-3-yl}propanoate] fall in the same range of IC50: 1000 to 10000 nM for the first, 1000 to 10000 nM for the second.

First: CC(C)(C)OC(=O)CCc1c[nH]c2ccc(CC(=O)NC(c3ccccc3)c3ccc(C(F)(F)F)cc3N3CCCC3)cc12 (stereo not shown) [Cpd. 47, tert-butyl 3-{5-[({phenyl[2-(pyrrolidin-1-yl)-4-(trifluoromethyl)phenyl]methyl}carbamoyl)methyl]-1H-indol-3-yl}propanoate]
Second: CC(C)(C)OC(=O)CCc1c[nH]c2ccc(CC(=O)NC(c3ccccc3)c3ccc(C#N)cc3N3CCCC3)cc12 (stereo not shown) [Cpd. 59, tert-butyl 3-{5-[({[4-cyano-2-(pyrrolidin-1-yl)phenyl](phenyl)methyl}carbamoyl)methyl]-1H-indol-3-yl}propanoate]
The IC50 of the first is higher: 1000 to 10000 nM for the first, less than 1000 nM for the second. The second is the more potent here.

COC(=O)Cc1c[nH]c2ccc(CC(=O)NC(c3ccccc3)c3ccc(C)cc3N3CCCC3)cc12 (stereo not shown) [Cpd. 64, methyl 2-{5-[({[4-methyl-2-(pyrrolidin-1-yl)phenyl](phenyl)methyl}carbamoyl)methyl]-1H-indol-3-yl}acetate] and Cc1ccc(C(NC(=O)Cc2ccc3[nH]cc(CCC(=O)O)c3c2)c2ccccc2)c(N2CCCCCC2)c1 (stereo not shown) [compound 251, 3-{5-[({[2-(azepan-1-yl)-4-methylphenyl](phenyl)methyl}carbamoyl)methyl]-1H-indol-3-yl}propanoic acid] cannot be ordered by IC50: less than 1000 nM for the first, less than 1000 nM for the second.

O=C(O)CCc1c[nH]c2ccc(CC(=O)NC(CC3CCOCC3)c3ccccc3N3CCCCC3)cc12 (stereo not shown) [compound 190, 3-[5-({[2-(oxan-4-yl)-1-[2-(piperidin-1-yl)phenyl]ethyl]carbamoyl}methyl)-1H-indol-3-yl]propanoic acid] and CC(C)CCC(NC(=O)Cc1ccc2[nH]cc(CCC(=O)O)c2c1)c1ccccc1N1CCCCC1 (stereo not shown) [compound 245, 3-{5-[({4-methyl-1-[2-(piperidin-1-yl)phenyl]pentyl}carbamoyl)methyl]-1H-indol-3-yl}propanoic acid] cannot be ordered by IC50: less than 1000 nM for the first, less than 1000 nM for the second.

Compared with CC(C)CC(NC(=O)Cc1ccc2[nH]cc(CC(=O)O)c2c1)c1ccccc1N1CCCCC1 (stereo not shown) [compound 194, 2-{5-[({3-methyl-1-[2-(piperidin-1-yl)phenyl]butyl}carbamoyl)methyl]-1H-indol-3-yl}acetic acid], Cc1cc(C(NC(=O)Cc2ccc3[nH]cc(CCC(=O)O)c3c2)c2ccccc2N2CCCCC2)oc1C (stereo not shown) [compound 253, 3-[5-({[(4,5-dimethylfuran-2-yl)[2-(piperidin-1-yl)phenyl]methyl]carbamoyl}methyl)-1H-indol-3-yl]propanoic acid] is lower in IC50: 1000 to 10000 nM for the first, less than 1000 nM for the second. The second is the more potent here.

O=C(O)CCc1c[nH]c2ccc(CC(=O)NC(c3ccccc3)c3ccccc3N3CCOCC3)cc12 (stereo not shown) [compound 196, 3-{5-[({[2-(morpholin-4-yl)phenyl](phenyl)methyl}carbamoyl)methyl]-1H-indol-3-yl}propanoic acid] and N=C(N)NC(=O)CCc1c[nH]c2ccc(CC(=O)NC(c3ccccc3)c3ccccc3N3CCCCC3)cc12 (stereo not shown) [compound 235, 1-{2-[(2-{3-[2-(carbamimidoylcarbamoyl)ethyl]-1H-indol-5-yl}acetamido)(phenyl)methyl]phenyl}piperidin-1-ium chloride] fall in the same range of IC50: 1000 to 10000 nM for the first, 1000 to 10000 nM for the second.

First: CNc1cc(C)ccc1C(NC(=O)Cc1ccc2[nH]cc(CCC(=O)O)c2c1)c1ccccc1 (stereo not shown) [compound 204, 3-{5-[({[4-methyl-2-(methylamino)phenyl](phenyl)methyl}carbamoyl)methyl]-1H-indol-3-yl}propanoic acid]
Second: Cc1ccc(C(NC(=O)Cc2ccc3[nH]cc(CCC(=O)O)c3c2)c2ccccc2)c2[nH]ccc12 (stereo not shown) [compound 229, 3-[5-({[(4-methyl-1H-indol-7-yl)(phenyl)methyl]carbamoyl}methyl)-1H-indol-3-yl]propanoic acid]
The IC50 of the first is lower: less than 1000 nM for the first, 1000 to 10000 nM for the second.

First: O=C(Cc1ccc2[nH]cc(C(=O)O)c2c1)NC(c1ccccc1)c1ccccc1N1CCCCC1 (stereo not shown) [compound 206, 1-(2-{[2-(3-carboxy-1H-indol-5-yl)acetamido](phenyl)methyl}phenyl)piperidin-1-ium chloride]
Second: O=C(O)CCC(=O)c1c[nH]c2ccc(CC(=O)NC(c3ccccc3)c3ccccc3N3CCCCC3)cc12 (stereo not shown) [compound 213, 4-oxo-4-{5-[({phenyl[2-(piperidin-1-yl)phenyl]methyl}carbamoyl)methyl]-1H-indol-3-yl}butanoic acid]
The IC50 of the first is higher: 1000 to 10000 nM for the first, less than 1000 nM for the second. The second is the more potent here.

Compared with Cc1ccc(C(NC(=O)Cc2ccc3[nH]cc(C(=O)O)c3c2)c2ccccc2)c(Br)c1 (stereo not shown) [compound 207, 5-({[(2-bromo-4-methylphenyl)(phenyl)methyl]carbamoyl}methyl)-1H-indole-3-carboxylic acid], CCOc1ccc(C(NC(=O)Cc2ccc3[nH]cc(CCC(=O)O)c3c2)c2ccccc2)c(OCC)c1 (stereo not shown) [compound 247, 3-[5-({[(2,4-diethoxyphenyl)(phenyl)methyl]carbamoyl}methyl)-1H-indol-3-yl]propanoic acid] is lower in IC50: 1000 to 10000 nM for the first, less than 1000 nM for the second. The second is the more potent here.

O=C(O)CCCC(=O)c1c[nH]c2ccc(CC(=O)NC(c3ccccc3)c3ccccc3N3CCCCC3)cc12 (stereo not shown) [compound 215, 5-oxo-5-{5-[({phenyl[2-(piperidin-1-yl)phenyl]methyl}carbamoyl)methyl]-1H-indol-3-yl}pentanoic acid] and O=C(O)CCc1n[nH]c2ccc(CC(=O)NC(c3ccccc3)c3ccccc3N3CCCCC3)cc12 (stereo not shown) [compound 237, 3-{5-[({phenyl[2-(piperidin-1-yl)phenyl]methyl}carbamoyl)methyl]-1H-indazol-3-yl}propanoic acid] cannot be ordered by IC50: less than 1000 nM for the first, less than 1000 nM for the second.

CC(C)CC(NC(=O)Cc1ccc2[nH]cc(CCC(=O)O)c2c1)c1ccccc1OC(C)C (stereo not shown) [compound 241, 3-{5-[({3-methyl-1-[2-(propan-2-yloxy)phenyl]butyl}carbamoyl)methyl]-1H-indol-3-yl}propanoic acid] and CCOc1ccccc1C(CC(C)C)NC(=O)Cc1ccc2[nH]cc(CCC(=O)O)c2c1 (stereo not shown) [compound 243, 3-[5-({[1-(2-ethoxyphenyl)-3-methylbutyl]carbamoyl}methyl)-1H-indol-3-yl]propanoic acid] cannot be ordered by IC50: less than 1000 nM for the first, less than 1000 nM for the second.

Cc1ccc(C(NC(=O)Cc2ccc3[nH]cc(CCC(=O)O)c3c2)c2ccccc2OC(C)C)o1 (stereo not shown) [compound 255, 3-[5-({[(5-methylfuran-2-yl)[2-(propan-2-yloxy)phenyl]methyl]carbamoyl}methyl)-1H-indol-3-yl]propanoic acid] and CON(C)C(=O)Cc1c[nH]c2ccc(CC(=O)NC(c3ccccc3)c3ccccc3N3CCCCC3)cc12 (stereo not shown) [compound 258, N-methoxy-N-methyl-2-{5-[({phenyl[2-(piperidin-1-yl)phenyl]methyl}carbamoyl)methyl]-1H-indol-3-yl}acetamide] cannot be ordered by IC50: less than 1000 nM for the first, less than 1000 nM for the second.

First: CC(C)CC(NC(=O)Nc1ccc2[nH]cc(CCC(=O)OC(C)(C)C)c2c1)c1ccccc1N1CCCCC1 (stereo not shown) [compound 262, tert-butyl 3-{5-[({3-methyl-1-[2-(piperidin-1-yl)phenyl]butyl}carbamoyl)amino]-1H-indol-3-yl}propanoate]
Second: Cc1ccc(C(NC(=O)Cc2ccc3[nH]cc(CCC(=O)OC(C)(C)C)c3c2)c2ccccc2)c(N2CCN(Cc3ccccc3)CC2)c1 (stereo not shown) [compound 263, tert-butyl 3-{5-[({[2-(4-benzylpiperazin-1-yl)-4-methylphenyl](phenyl)methyl}carbamoyl)methyl]-1H-indol-3-yl}propanoate]
The IC50 of the first is higher: 1000 to 10000 nM for the first, less than 1000 nM for the second.
